Results on 22 compounds are retold here after patent US10065956B2, “Ethynyl derivatives” (Hoffmann-La Roche Inc., priority 2015, dated 2018).

Molecules are shown by their SMILES.

Broadly, the EC50 is the concentration at which the effect is half-maximal.

The test addresses T1, human mGlu4 receptor (Homo sapiens, UniProt Q14833).
T1 construct: expressed in transfected cells; host or cells: monoclonal HEK-293 cell line, stably transfected
In words: Ca2+ mobilization in vitro assay on recombinant human mGlu4 expressed in HEK293 cells (PAM, L-AP4 at EC20). It is filed as cell-based. The note with it: for Emax: HEK293, maximal response in % of the maximal stimulatory effect obtained with saturating concentrations of L-AP4, read-out: Eff. (%); for EC50: HEK293 cells expressing human mGlu4, L-AP4 added at EC20. The text has this:
FIG. 1: Illustration of the experimental outline for mGlu4 PAM Ca2+ mobilization screening assay and the determination of EC50 and % Emax values.
Determination of EC50 Values Using a Ca2+ Mobilization In Vitro Assay on Recombinant Human mGlu4 Expressed in HEK293 Cells:
A monoclonal HEK-293 cell line stably transfected with a cDNA encoding for the human mGlu4 receptor was generated; for the work with mGlu4 Positive Allosteric Modulators (PAMs), a cell line with low receptor expression levels and low constitutive receptor activity was selected to allow the differentiation of agonistic versus PAM activity. Cells were cultured according to standard protocols (Freshney, 2000) in Dulbecco's Modified Eagle Medium with high glucose supplemented with 1 mM glutamine, 10% (vol/vol) heat-inactivated bovine calf serum, Penicillin/Streptomycin, 50 μg/ml hygromycin and 15 μg/ml blasticidin (all cell culture reagents and antibiotics from Invitrogen, Basel, Switzerland).
About 24 hrs before an experiment, 5×10^4 cells/well were seeded in poly-D-lysine coated, black/clear-bottomed 96-well plates. The cells were loaded with 2.5 μM Fluo-4AM in loading buffer (1×HBSS, 20 mM HEPES) for 1 hr at 37° C. and washed five times with loading buffer. The cells were transferred into a Functional Drug Screening System 7000 (Hamamatsu, Paris, France), and 11 half logarithmic serial dilutions of test compound at 37° C. were added and the cells were incubated for 10-30 min. with on-line recording of fluorescence. Following this pre-incubation step, the agonist (2S)-2-amino-4-phosphonobutanoic acid (L-AP4) was added to the cells at a concentration corresponding to EC20 with on-line recording of fluorescence; in order to account for day-to-day variations in the responsiveness of cells, the EC20 of L-AP4 was determined immediately ahead of each experiment by recording of a full dose-response curve of L-AP4. Responses were measured as peak increase in fluorescence minus basal (i.e. fluorescence without addition of L-AP4), normalized to the maximal stimulatory effect obtained with saturating concentrations of L-AP4. Graphs were plotted with the % maximal stimulatory using XLfit, a curve fitting program that iteratively plots the data using Levenburg Marquardt algorithm. The single site competition analysis equation used was y=A+((B−A)/(1+((x/C)D))), where y is the % maximal stimulatory effect, A is the minimum y, B is the maximum y, C is the EC50, x is the log 10 of the concentration of the competing compound and D is the slope of the curve (the Hill Coefficient). From these curves the EC50 (drug concentration at which 50% of the maximal receptor activation was achieved), the Hill coefficient as well as the maximal response in % of the maximal stimulatory effect obtained with saturating concentrations of L-AP4 were calculated (see FIG. 1). […] A depression of the signal observed after addition of the EC20 concentration of L-AP4 was indicative of an inhibitory activity of the test compound.
(Calcium flux is commonly read through the fluorescence of an indicator in the cells.)

T1 sequence (Q14833 33-912): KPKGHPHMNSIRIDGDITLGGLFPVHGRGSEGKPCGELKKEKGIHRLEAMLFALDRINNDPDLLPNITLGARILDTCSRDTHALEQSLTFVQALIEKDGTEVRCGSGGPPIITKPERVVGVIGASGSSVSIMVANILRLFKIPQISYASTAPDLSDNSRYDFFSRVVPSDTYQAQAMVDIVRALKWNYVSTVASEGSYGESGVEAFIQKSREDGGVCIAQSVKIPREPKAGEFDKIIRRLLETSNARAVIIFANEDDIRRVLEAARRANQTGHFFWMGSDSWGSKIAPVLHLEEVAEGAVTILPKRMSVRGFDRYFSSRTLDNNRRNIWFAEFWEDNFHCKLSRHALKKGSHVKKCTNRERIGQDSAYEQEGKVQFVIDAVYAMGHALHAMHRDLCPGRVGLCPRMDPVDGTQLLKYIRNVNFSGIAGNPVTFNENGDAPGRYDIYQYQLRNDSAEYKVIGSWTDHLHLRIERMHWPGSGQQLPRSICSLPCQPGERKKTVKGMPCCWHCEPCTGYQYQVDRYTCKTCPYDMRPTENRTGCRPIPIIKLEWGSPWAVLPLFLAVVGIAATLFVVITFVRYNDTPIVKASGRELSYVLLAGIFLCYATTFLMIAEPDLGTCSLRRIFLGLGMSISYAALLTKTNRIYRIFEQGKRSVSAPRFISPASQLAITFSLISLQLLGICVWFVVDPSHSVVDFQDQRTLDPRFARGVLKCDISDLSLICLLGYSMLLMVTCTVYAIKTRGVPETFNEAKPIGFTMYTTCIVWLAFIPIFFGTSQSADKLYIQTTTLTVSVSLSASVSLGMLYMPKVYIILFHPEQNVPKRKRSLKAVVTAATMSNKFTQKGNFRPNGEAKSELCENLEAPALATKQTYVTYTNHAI

Regarding `CN1C(=O)N(c2c(F)cc(C#Cc3cccc(F)c3F)cc2F)C(=O)C[C@@]1(C)c1cnn(C)c1` [Example 57, (6S)-3-[4-[2-(2,3-Difluorophenyl)ethynyl]-2,6-difluoro-phenyl]-1,6-dimethyl-6-(1-methylpyrazol-4-yl)hexahydropyrimidine-2,4-dione], the Emax worked out at 143% and the EC50 turned out to be 97 nM.

`CN1C(=O)N(c2c(F)cc(C#Cc3cccc(F)c3)cc2F)C(=O)C[C@@]1(C)c1cn[nH]c1` [Example 59, (6S)-3-[2,6-Difluoro-4-[2-(3-fluorophenyl)ethynyl]phenyl]-1,6-dimethyl-6-(1H-pyrazol-4-yl)hexahydropyrimidine-2,4-dione]: the Emax is 160% and the EC50 came out at 44 nM.

For the compound `Cc1nc(C2(C)CC(=O)N(c3c(F)cc(C#Cc4ccccc4)cc3F)C(=O)N2C)cs1` (racemic) [Example 3, (6RS)-3-[2,6-Difluoro-4-(2-phenylethynyl)phenyl]-1,6-dimethyl-6-(2-methylthiazol-4-yl)hexahydropyrimidine-2,4-dione], the Emax stood at 138% and the EC50 came to 94 nM.

Regarding `CN1C(=O)N(c2c(F)cc(C#Cc3ccccc3)cc2F)C(=O)C[C@@]1(C)c1cnn(C2CCOC2)c1` (mixture of isomers) [Example 62, (6S)-3-[2,6-Difluoro-4-(2-phenylethynyl)phenyl]-1,6-dimethyl-6-[1-[(3RS)-tetrahydrofuran-3-yl]pyrazol-4-yl]hexahydropyrimidine-2,4-dione], the Emax amounted to 128% and the EC50 came out at 71 nM.

On to `CN1C(=O)N(c2c(F)cc(C#Cc3cccc(F)c3)cc2F)C(=O)C[C@@]1(C)c1cnn(C)c1` [Example 47, (6S)-3-[2,6-Difluoro-4-[2-(3-fluorophenyl)ethynyl]phenyl]-1,6-dimethyl-6-(1-methylpyrazol-4-yl)hexahydropyrimidine-2,4-dione], for which the Emax turned out to be 136% and the EC50 turned out to be 71 nM.

`CN1C(=O)N(c2c(F)cc(C#Cc3ccccc3)cc2F)C(=O)C[C@@]1(C)c1ccsn1` [Example 38, (6S)-3-[2,6-Difluoro-4-(2-phenylethynyl)phenyl]-6-isothiazol-3-yl-1,6-dimethyl-hexahydropyrimidine-2,4-dione]: the Emax was 152% and the EC50 worked out at 39 nM.

`CN1C(=O)N(c2c(F)cc(C#Cc3ccccc3)cc2F)C(=O)C[C@@]1(C)c1cncs1` [Example 42, (6S)-3-[2,6-Difluoro-4-(2-phenylethynyl)phenyl]-1,6-dimethyl-6-thiazol-5-yl-hexahydropyrimidine-2,4-dione]: the Emax was determined as 135% and the EC50 turned out to be 86 nM.

Take `CN1C(=O)N(c2c(F)cc(C#Cc3ccccc3)cc2F)C(=O)C[C@@]1(C)c1nn(C)c2ccccc12` [Example 8, (6S)-3-[2,6-Difluoro-4-(2-phenylethynyl)phenyl]-1,6-dimethyl-6-(1-methylindazol-3-yl)hexahydropyrimidine-2,4-dione]: the Emax was 99% and the EC50 is 157 nM.

For `CN1C(=O)N(c2c(F)cc(C#Cc3ccc(F)cc3)cc2F)C(=O)C[C@@]1(C)c1cnn(C)c1` [Example 49, (6S)-3-[2,6-Difluoro-4-[2-(4-fluorophenyl)ethynyl]phenyl]-1,6-dimethyl-6-(1-methylpyrazol-4-yl)hexahydropyrimidine-2,4-dione], the Emax was 142% and the EC50 was found to be 55 nM.

For the compound `CN1C(=O)N(c2c(F)cc(C#Cc3ccccc3)cc2F)C(=O)C[C@@]1(C)c1ccn(C2CCOC2)n1` (mixture of isomers) [Example 64, (6S)-3-[2,6-Difluoro-4-(2-phenylethynyl)phenyl]-1,6-dimethyl-6-[1-[(3RS)-tetrahydrofuran-3-yl]pyrazol-3-yl]hexahydropyrimidine-2,4-dione], the Emax was determined as 98% and the EC50 turned out to be 88 nM.

As for `CN1C(=O)N(c2c(F)cc(C#Cc3cc(F)ccc3F)cc2F)C(=O)C[C@@]1(C)c1cnn(C)c1` [Example 48, (6S)-3-[4-[2-(2,5-Difluorophenyl)ethynyl]-2,6-difluoro-phenyl]-1,6-dimethyl-6-(1-methylpyrazol-4-yl)hexahydropyrimidine-2,4-dione], the Emax worked out at 140% and the EC50 turned out to be 79 nM.

Regarding `CN1C(=O)N(c2c(F)cc(C#Cc3ccccc3)cc2F)C(=O)C[C@@]1(C)c1cn(C)cn1` [Example 2, (6S)-3-[2,6-Difluoro-4-(2-phenylethynyl)phenyl]-1,6-dimethyl-6-(1-methylimidazol-4-yl)hexahydropyrimidine-2,4-dione], the Emax amounted to 109% and the 50% effective concentration (EC50) was 121 nM.

For `CN1C(=O)N(c2c(F)cc(C#Cc3ccccc3)cc2F)C(=O)C[C@@]1(C)c1ccnn1C` [Example 7, (6S)-3-[2,6-Difluoro-4-(2-phenylethynyl)phenyl]-1,6-dimethyl-6-(2-methylpyrazol-3-yl)hexahydropyrimidine-2,4-dione], the Emax amounted to 100% and the EC50 worked out at 147 nM.

In the case of `CN1C(=O)N(c2ccc(C#Cc3ccccc3)cc2Cl)C(=O)C[C@@]1(C)c1cnn(C)c1` [Example 37, (6S)-3-[2-Chloro-4-(2-phenylethynyl)phenyl]-1,6-dimethyl-6-(1-methylpyrazol-4-yl)hexahydropyrimidine-2,4-dione], the Emax came to 175% and the EC50 came out at 112 nM.

As for `CN1C(=O)N(c2c(F)cc(C#Cc3ccc(F)cc3F)cc2F)C(=O)C[C@@]1(C)c1cn[nH]c1` [Example 56, (6S)-3-[4-[2-(2,4-Difluorophenyl)ethynyl]-2,6-difluoro-phenyl]-1,6-dimethyl-6-(1H-pyrazol-4-yl)hexahydropyrimidine-2,4-dione], the Emax was found to be 143% and the EC50 came out at 44 nM.

For `CC[C@@]1(c2cnn(C)c2)CC(=O)N(c2c(F)cc(C#Cc3ccccc3)cc2F)C(=O)N1C` [Example 18, (6S)-3-[2,6-Difluoro-4-(2-phenylethynyl)phenyl]-6-ethyl-1-methyl-6-(1-methylpyrazol-4-yl)hexahydropyrimidine-2,4-dione], the Emax was determined as 135% and the EC50 stood at 47 nM.

As to `CN1C(=O)N(c2c(F)cc(C#Cc3ccccc3)cc2F)C(=O)C[C@@]1(C)c1cnn(C)c1` [Example 6, (6S)-3-[2,6-Difluoro-4-(2-phenylethynyl)phenyl]-1,6-dimethyl-6-(1-methylpyrazol-4-yl)hexahydropyrimidine-2,4-dione], the Emax is 98% and the EC50 was 36 nM.

On to `CN1C(=O)N(c2c(F)cc(C#Cc3ccccc3)cc2F)C(=O)C[C@@]1(C)c1cn[nH]c1` [Example 16, (6S)-3-[2,6-Difluoro-4-(2-phenylethynyl)phenyl]-1,6-dimethyl-6-(1H-pyrazol-4-yl)hexahydropyrimidine-2,4-dione], for which the Emax amounted to 131% and the EC50 was 36 nM.

`CN1C(=O)N(c2c(F)cc(C#Cc3ccccc3)cc2F)C(=O)C[C@@]1(C)c1cnco1` [Example 35, (6S)-3-[2,6-Difluoro-4-(2-phenylethynyl)phenyl]-1,6-dimethyl-6-oxazol-5-yl-hexahydropyrimidine-2,4-dione]: the Emax worked out at 195% and the EC50 was determined as 90 nM.

As for `CN1C(=O)N(c2c(F)cc(C#Cc3ccccc3F)cc2F)C(=O)C[C@@]1(C)c1cn[nH]c1` [Example 53, (6S)-3-[2,6-Difluoro-4-[2-(2-fluorophenyl)ethynyl]phenyl]-1,6-dimethyl-6-(1H-pyrazol-4-yl)hexahydropyrimidine-2,4-dione], the Emax stood at 145% and the EC50 stood at 17 nM.

Consider `CN1C(=O)N(c2c(F)cc(C#Cc3ccccc3)cc2F)C(=O)C[C@@]1(C)c1cnn(C2CC2)c1` [Example 52, (6S)-6-(1-Cyclopropylpyrazol-4-yl)-3-[2,6-difluoro-4-(2-phenylethynyl)phenyl]-1,6-dimethyl-hexahydropyrimidine-2,4-dione], for which the Emax came to 127% and the EC50 was determined as 31 nM.

In the case of `CN1C(=O)N(c2c(F)cc(C#Cc3ccccc3)cc2F)C(=O)C[C@@]1(C)c1ccn(C)n1` [Example 26, (6S)-3-[2,6-Difluoro-4-(2-phenylethynyl)phenyl]-1,6-dimethyl-6-(1-methylpyrazol-3-yl)hexahydropyrimidine-2,4-dione], the Emax was 146% and the EC50 was determined as 69 nM.
